# Laboratory results from US20100209345A1, “Fluorinated Ligands for Targeting Peripheral Benzodiazepine Receptors” (Australian Nuclear Science & Technology Organisation, priority 2006, published 2010).
# Assay: Biodistribution of 18F-labelled tracers in rats
# Format: in vivo
# In short: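 Sprague-Dawley rats received 18F tracer, and brain and peripheral tissues were analysed at 15 and 30 min and 1 and 4 h post-injection. For specificity, rats were pretreated 5 min beforehand with PK11195 or Ro 5-4864 (PBR) or flumazenil (CBR), each at 1 mg/kg.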
# [1] = SD rats, 15 min, decay correction not stated
# [2] = SD rats, 4 hours, decay correction not stated
# [3] = rats, 15 min, corrected for decay of 18F
# [4] = rats, 15 min, not corrected for decay of 18F
# [5] = rats, 30 min, corrected for decay of 18F
# [6] = rats, 30 min, not corrected for decay of 18F
# [7] = rats, 60 min (1 hour), not corrected for decay of 18F
# [8] = rats, 60 min, corrected for decay of 18F
# [9] = rats, 4 hours, corrected for decay of 18F
# [10] = rats, 4 hours, not corrected for decay of 18F
compound,measurement,setting,value
"CCN(CC)C(=O)Cc1c(-c2ccc(OCCF)cc2)nc2ccc(Cl)cn12 [PBR102, 2-(2-(4-(2-fluoroethoxy)phenyl)-6-chloroimidazo[1,2-a]pyridin-3-yl)-N,N-diethylacetamide]",Biodistribution: Bone,[1],0.4 % ID/g
same,Biodistribution: Kidney,[1],4.5 % ID/g
same,Biodistribution: Olfactory bulbs,[1],0.56 % ID/g
same,Biodistribution: Adrenals,"SD rats, 30 min, decay correction not stated",9 % ID/g
same,Biodistribution: Adrenals,[2],11 % ID/g
same,Biodistribution: Bone,[2],1.0 % ID/g
same,Biodistribution: Kidney,[2],1.3 % ID/g
same,Biodistribution: Olfactory bulbs,[2],0.40 % ID/g
same,Blood activity level / concentration in the blood over the 4 h study period,"SD rats, throughout 15 min to 4 h",0.20%
same,Biodistribution: Bone,[3],0.46 ± 0.04 % ID/g
same,Biodistribution: Heart,[3],4.35 ± 0.33 % ID/g
same,Biodistribution: Lungs,[3],14.30 ± 1.45 % ID/g
same,Biodistribution: Skin,[3],0.24 ± 0.03 % ID/g
same,Biodistribution: Adrenals,[4],8.30 ± 2.13 % ID/g
same,Biodistribution: Bladder,[4],0.59 ± 0.14 % ID/g
same,Biodistribution: Blood,[4],0.25 ± 0.06 % ID/g
same,Biodistribution: Bone,[4],0.56 ± 0.07 % ID/g
same,Biodistribution: Brain,[4],0.24 ± 0.03 % ID/g
same,Biodistribution: GIT,[4],0.82 ± 0.11 % ID/g
same,Biodistribution: Heart,[4],5.23 ± 0.33 % ID/g
same,Biodistribution: Kidney,[4],3.90 ± 0.53 % ID/g
same,Biodistribution: Liver,[4],0.75 ± 0.21 % ID/g
same,Biodistribution: Lungs,[4],17.25 ± 1.70 % ID/g
same,Biodistribution: Muscle,[4],0.49 ± 0.03 % ID/g
same,Biodistribution: Olfactory bulbs,[4],0.68 ± 0.12 % ID/g
same,Biodistribution: Pancreas,[4],1.74 ± 0.22 % ID/g
same,Biodistribution: Skin,[4],0.29 ± 0.05 % ID/g
same,Biodistribution: Spleen,[4],5.35 ± 0.89 % ID/g
same,Biodistribution: Stomach,[4],0.80 ± 0.19 % ID/g
same,Biodistribution: Testes,[4],0.22 ± 0.02 % ID/g
same,Biodistribution: Thymus,[4],0.68 ± 0.17 % ID/g
same,Biodistribution: Thyroid,[4],7.74 ± 1.90 % ID/g
same,Biodistribution: Bone,[5],0.52 ± 0.05 % ID/g
same,Biodistribution: Heart,[5],4.44 ± 0.26 % ID/g
same,Biodistribution: Lungs,[5],12.10 ± 1.98 % ID/g
same,Biodistribution: Skin,[5],0.31 ± 0.03 % ID/g
same,Biodistribution: Adrenals,[6],9.75 ± 1.53 % ID/g
same,Biodistribution: Bladder,[6],0.67 ± 0.16 % ID/g
same,Biodistribution: Blood,[6],0.21 ± 0.03 % ID/g
same,Biodistribution: Bone,[6],0.64 ± 0.12 % ID/g
same,Biodistribution: Brain,[6],0.20 ± 0.04 % ID/g
same,Biodistribution: GIT,[6],1.07 ± 0.26 % ID/g
same,Biodistribution: Heart,[6],5.41 ± 0.71 % ID/g
same,Biodistribution: Kidney,[6],3.95 ± 1.01 % ID/g
same,Biodistribution: Liver,[6],0.63 ± 0.21 % ID/g
same,Biodistribution: Lungs,[6],14.80 ± 3.67 % ID/g
same,Biodistribution: Muscle,[6],0.46 ± 0.08 % ID/g
same,Biodistribution: Olfactory bulbs,[6],0.44 ± 0.05 % ID/g
same,Biodistribution: Pancreas,[6],1.42 ± 0.45 % ID/g
same,Biodistribution: Skin,[6],0.37 ± 0.05 % ID/g
same,Biodistribution: Spleen,[6],4.68 ± 0.90 % ID/g
same,Biodistribution: Stomach,[6],0.71 ± 0.21 % ID/g
same,Biodistribution: Testes,[6],0.29 ± 0.05 % ID/g
same,Biodistribution: Thymus,[6],0.81 ± 0.06 % ID/g
same,Biodistribution: Thyroid,[6],10.70 ± 2.08 % ID/g
same,Biodistribution: Adrenals,[7],7.88 ± 1.86 % ID/g
same,Biodistribution: Bladder,[7],0.60 ± 0.11 % ID/g
same,Biodistribution: Blood,[7],0.20 ± 0.03 % ID/g
same,Biodistribution: Bone,[7],0.73 ± 0.13 % ID/g
same,Biodistribution: Brain,[7],0.20 ± 0.03 % ID/g
same,Biodistribution: GIT,[7],1.09 ± 0.13 % ID/g
same,Biodistribution: Heart,[7],5.32 ± 0.74 % ID/g
same,Biodistribution: Kidney,[7],3.10 ± 0.51 % ID/g
same,Biodistribution: Liver,[7],0.40 ± 0.04 % ID/g
same,Biodistribution: Lungs,[7],13.44 ± 2.71 % ID/g
same,Biodistribution: Muscle,[7],0.39 ± 0.07 % ID/g
same,Biodistribution: Olfactory bulbs,[7],0.52 ± 0.05 % ID/g
same,Biodistribution: Pancreas,[7],0.88 ± 0.18 % ID/g
same,Biodistribution: Skin,[7],0.43 ± 0.07 % ID/g
same,Biodistribution: Spleen,[7],3.89 ± 0.54 % ID/g
same,Biodistribution: Stomach,[7],0.52 ± 0.13 % ID/g
same,Biodistribution: Testes,[7],0.37 ± 0.06 % ID/g
same,Biodistribution: Thymus,[7],0.91 ± 0.16 % ID/g
same,Biodistribution: Thyroid,[7],11.55 ± 4.24 % ID/g
same,Biodistribution: Bone,[8],0.64 ± 0.07 % ID/g
same,Biodistribution: Heart,[8],4.62 ± 0.27 % ID/g
same,Biodistribution: Lungs,[8],11.63 ± 1.52 % ID/g
same,Biodistribution: Skin,[8],0.37 ± 0.03 % ID/g
same,Biodistribution: Bone,[9],1.01 ± 0.09 % ID/g
same,Biodistribution: Heart,[9],2.82 ± 0.15 % ID/g
same,Biodistribution: Lungs,[9],8.09 ± 1.14 % ID/g
same,Biodistribution: Skin,[9],0.49 ± 0.03 % ID/g
same,Biodistribution: Adrenals,[10],9.77 ± 2.42 % ID/g
same,Biodistribution: Bladder,[10],1.08 ± 0.14 % ID/g
same,Biodistribution: Blood,[10],0.26 ± 0.03 % ID/g
same,Biodistribution: Bone,[10],1.22 ± 0.22 % ID/g
same,Biodistribution: Brain,[10],0.23 ± 0.03 % ID/g
same,Biodistribution: GIT,[10],1.43 ± 0.34 % ID/g
same,Biodistribution: Heart,[10],3.38 ± 0.44 % ID/g
same,Biodistribution: Kidney,[10],1.61 ± 0.29 % ID/g
same,Biodistribution: Liver,[10],0.34 ± 0.05 % ID/g
same,Biodistribution: Lungs,[10],10.26 ± 1.09 % ID/g
same,Biodistribution: Muscle,[10],0.27 ± 0.03 % ID/g
same,Biodistribution: Olfactory bulbs,[10],0.50 ± 0.13 % ID/g
same,Biodistribution: Pancreas,[10],0.49 ± 0.12 % ID/g
same,Biodistribution: Skin,[10],0.59 ± 0.06 % ID/g
same,Biodistribution: Spleen,[10],2.29 ± 0.50 % ID/g
same,Biodistribution: Stomach,[10],0.49 ± 0.13 % ID/g
same,Biodistribution: Testes,[10],0.52 ± 0.06 % ID/g
same,Biodistribution: Thymus,[10],1.21 ± 0.27 % ID/g
same,Biodistribution: Thyroid,[10],8.29 ± 3.22 % ID/g
